Data taken from ChEMBL document CHEMBL3593236, “Cloning, characterization and anion inhibition studies of a new γ-carbonic anhydrase from the Antarctic bacterium Pseudoalteromonas haloplanktis” (Bioorg Med Chem, 2015).

Target: T1, Carbonic anhydrase (Methanosarcina thermophila, UniProt P40881)
T1 sequence (P40881 whole entry): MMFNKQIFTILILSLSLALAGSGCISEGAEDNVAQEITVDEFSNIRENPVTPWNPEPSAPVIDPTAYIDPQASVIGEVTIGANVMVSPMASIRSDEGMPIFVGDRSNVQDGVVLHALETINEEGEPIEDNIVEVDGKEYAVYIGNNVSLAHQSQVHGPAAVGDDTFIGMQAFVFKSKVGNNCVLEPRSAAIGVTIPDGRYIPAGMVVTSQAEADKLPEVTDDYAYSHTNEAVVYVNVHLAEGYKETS
Description: Inhibition of archaeon Methanosarcina thermophila gamma-CA after 15 mins by stopped-flow/Co2 hydration assay

[Br-].[Na+] [SODIUM BROMIDE]
Ki: 160 mM

N#C[S-].[Na+] [THIOCYANATE SODIUM]
Ki: 7 mM
